This is an account of results in US4902799A, “Bicyclic alkoxy- and alkylthio-substituted aminoalcohols” (Maggioni-Winthrop S.p.A., priority 1985, dated 1990).

The LD50 is the dose at which mortality reaches 50%.

For one data set, the system named is male mice. The data set is described as follows: Anti-hypoxic activity (gasping time after decapitation). The data set is classed as in vivo. Conditions: Mus musculus, po, read-out: Gasping time, % diff. from control; for change in vivo at 100 mg/kg: 100 mg/kg/p.o.
The next data set is described as follows: in vivo. The conditions noted are these: mouse, po.
The next data set has as its system Normolipemic rats. Nature of the data set: Hypolipemic activity in normolipemic rats. The data set is classed as in vivo, rat (Sprague Dawley Nos male rats). The conditions noted are these: for CHOL-HDL (in words) / serum TG (in words) / hypolipemic activity (in words): oral.
The next data set concerns platelet aggregation. Nature of the data set: Collagen-induced platelet aggregation ex vivo. Type of data set: in vivo, rat.
The next data set concerns toxic adrenaline doses. The data set is described as follows: animal or person. Type of data set: in vivo, mouse (male mice CrI:CD 1(CR) BR). Conditions: Mus musculus, po, 24 h, read-out: PD50 (50% protective dose).
The mark [1] stands for this setting: 0.15 mM/kg oral, blood 1 hr after treatment, collagen 2-4 mcg/ml.

Read-outs that look alike come from different tables or passages of the source.

As to `Fc1ccc(C(c2ccc(F)cc2)N2CCN(C/C=C/c3ccccc3)CC2)cc1` [Flunarizine, reference compound], the change in vivo at 50 mg/kg with male mice (50 mg/kg/p.o., pretreatment 90 min) was determined as 68.7%.
`CSc1ccc2cc(C(O)C(C)N3CCN(C(=O)c4ccco4)CC3)ccc2c1` (stereo not drawn) [MG 28451, 2-[4-(2-Furoyl)-1-piperazinyl]-1-(6-methylthio-2-naphthyl)-propanol] had a median lethal dose (LD50) in the data set “in vivo” above 1000 mg/kg. In the data set on Normolipemic rats (0.37 mM/kg/p.o. × 4 days), the “CHOL, % different from control” value is -13.5%; the “CHOL-HDL, % different from control” value is recorded as “+46.5%”; the “Liver Weight, % different from control” value is given as “+9.2%”; the “TG, % different from control” value is listed as -48.2%. In addition, in the data set on Normolipemic rats, the “CHOL-HDL (in words)” value is recorded as “increase of CHOL-HDL” and the “serum TG (in words)” value is “significative decrease of serum TG”.
As for `CSc1ccc2cc(C(O)C(C)N3CCN(C(=O)c4cccnc4)CC3)ccc2c1` (stereo not drawn) [MG 28453, 2-[4-(3-Pyridinylcarbonyl)-1-piperazinyl]-1-(6-methylthio-2-naphthyl)-propanol], in the data set with Normolipemic rats (0.185 mM/kg/p.o. × 4 days), the “CHOL, % different from control” value was “+8.5%”; the “CHOL-HDL, % different from control” value was “+45.2%”; the “Liver Weight, % different from control” value is given as “+2.8%”; the “TG, % different from control” value is reported as -36.4%. Moreover, in the data set on Normolipemic rats (0.37 mM/kg/p.o. × 4 days), the “CHOL, % different from control” value is -26.9%; the “CHOL-HDL, % different from control” value is “+31.7%”; the “Liver Weight, % different from control” value was “+21.6%”; the “TG, % different from control” value is reported as -75.4%. Further, in the data set on Normolipemic rats, the “CHOL-HDL (in words)” value is recorded as “increase of CHOL-HDL” and the “serum TG (in words)” value is “significative decrease of serum TG”.
Consider `COc1ccc2cc(C(O)C(C)N3CCN(C(=O)C=Cc4cc(OC)c(OC)c(OC)c4)CC3)ccc2c1` (stereo not drawn) [MG 28472, 2-[4-(1-Oxo-3-(3,4,5-trimethoxyphenyl)-2-propenyl)-1-piperazinyl]-1-(6-methoxy-2-naphthyl)-propanol], for which, in the data set on platelet aggregation (setting [1]), the “% Inhibition, Aggregation rate” value turned out to be 65.3% and the “% Inhibition, Maximum aggregation” value was determined as 75.7%.
With `COc1ccc2cc(C(O)C(C)N3CCN(c4ccccc4)CC3)ccc2c1` (stereo not drawn) [MG 38068, 2-(4-Phenyl-1-piperazinyl)-1-(6-methoxy-2-naphthyl)-propanol], in the data set with platelet aggregation (setting [1]), the “% Inhibition, Aggregation rate” value stood at 54.4% and the “% Inhibition, Maximum aggregation” value worked out at 58.8%. The compound further returned an LD50 in the data set “in vivo” above 1000 mg/kg. In addition, in the data set on Normolipemic rats (0.185 mM/kg/p.o. × 4 days), the “CHOL, % different from control” value is on record as -3.7%; the “CHOL-HDL, % different from control” value is recorded as “+5.0%”; the “Liver Weight, % different from control” value was “+2.6%”; the “TG, % different from control” value was -45.0%. In the data set with Normolipemic rats (0.37 mM/kg/p.o. × 4 days), the “CHOL, % different from control” value was -21.8%; the “CHOL-HDL, % different from control” value is reported as “+32.9%”; the “Liver Weight, % different from control” value is on record as “+0.3%”; the “TG, % different from control” value is -56.9%. In the data set with Normolipemic rats, the “CHOL-HDL (in words)” value is given as “increase of CHOL-HDL” and the “serum TG (in words)” value was “significative decrease of serum TG”.
Turning to `COc1ccc2cc(C(O)C(C)N3CCN(C(=O)C=Cc4ccccc4)CC3)ccc2c1` (stereo not drawn) [MG 38071, 2-[4-(1-Oxo-3-phenyl-2-propenyl)-1-piperazinyl]-1-(6-methoxy-2-naphthyl)-propanol], the change in vivo at 100 mg/kg in the data set with male mice (pretreatment 90 min) was 32.7%.
On the same count and under the same terms, with `CCCCCCCCNC(C)C(O)c1ccc2cc(OC)ccc2c1` (stereo not drawn) [MG 38077] the figure was 71%.
For `COc1ccc2cc(C(O)C(C)N3CCN(C(=O)c4ccco4)CC3)ccc2c1` (stereo not drawn) [MG 38078, 2-[4-(2-Furoyl)-1-piperazinyl]-1-(6-methoxy-2-naphthyl)-propanol], in the data set on platelet aggregation (setting [1]), the “% Inhibition, Aggregation rate” value is given as 64.0% and the “% Inhibition, Maximum aggregation” value turned out to be 70.4%. This compound returned an LD50 in “in vivo” above 2000 mg/kg.
As for `COc1ccc2cc(C(O)C(C)N3CCN(c4ccccc4OC)CC3)ccc2c1` (stereo not drawn) [MG 38098, threo-2-[4-(2-Methoxyphenyl)-1-piperazinyl]-1-(6-methoxy-2-naphthyl)-propanol], the change in vivo at 100 mg/kg in the data set with male mice (pretreatment 90 min) came to 41.1%.
As for `COc1ccc2cc(C(O)C(C)N3CCC(NC(=O)c4ccccc4)CC3)ccc2c1` (stereo not drawn) [MG 38105, 2-(4-Benzamido-1-piperidinyl)-1-(6-methoxy-2-naphthyl)-propanol], in the data set on Normolipemic rats (0.023 mM/kg/p.o. × 4 days), the “CHOL, % different from control” value is listed as -35.7%; the “CHOL-HDL, % different from control” value is -13.3%; the “Liver Weight, % different from control” value is “+5.5%”; the “TG, % different from control” value is recorded as -36.2%. In the data set with Normolipemic rats (0.046 mM/kg/p.o. × 4 days), the “CHOL, % different from control” value is recorded as -45.8%; the “CHOL-HDL, % different from control” value is “+1.3%”; the “Liver Weight, % different from control” value is on record as “+8.0%”; the “TG, % different from control” value is given as -63.8%. Further, in the data set on Normolipemic rats (0.185 mM/kg/p.o. × 4 days), the “CHOL, % different from control” value is on record as -96.6%; the “CHOL-HDL, % different from control” value is recorded as “+3.9%”; the “Liver Weight, % different from control” value was “+4.8%”; the “TG, % different from control” value is reported as -70.6%. In addition, the “hypolipemic activity (in words)” value with Normolipemic rats is reported as “good activity at very low doses”.
For the compound `COc1ccc2cc(C(O)C(C)N3CCC(NC(=O)c4ccccc4)CC3)ccc2c1` (stereo not drawn) [MG 38127, 2-(4-Benzamido-1-piperidinyl)-1-(6-methoxy-2-naphthyl)-propanol], in the data set on Normolipemic rats (0.023 mM/kg/p.o. × 4 days), the “CHOL, % different from control” value is -30.2%; the “CHOL-HDL, % different from control” value was “+7.6%”; the “Liver Weight, % different from control” value is -1.6%; the “TG, % different from control” value is -41.4%. Also, in the data set on Normolipemic rats (0.046 mM/kg/p.o. × 4 days), the “CHOL, % different from control” value is reported as -51.2%; the “CHOL-HDL, % different from control” value is -1.8%; the “Liver Weight, % different from control” value was “+8.6%”; the “TG, % different from control” value is given as -66.3%. Further, in the data set on Normolipemic rats (0.185 mM/kg/p.o. × 4 days), the “CHOL, % different from control” value is listed as -59.1%; the “CHOL-HDL, % different from control” value is -19.8%; the “Liver Weight, % different from control” value is “+3.3%”; the “TG, % different from control” value is -81.7%. Moreover, in the data set with Normolipemic rats, the “hypolipemic activity (in words)” value is reported as “good activity at very low doses”.
For `Cc1ccc(N(CC2=NCCN2)c2cccc(O)c2)cc1` [Phentolamine], in the data set with toxic adrenaline doses, the ED50 stood at 8 mg/kg.
The same measure, in the same setting: under `COc1cc2nc(N3CCN(C(=O)c4ccco4)CC3)nc(N)c2cc1OC` [Prazosin] stands 0.7 mg/kg.
As to `CC(C)(Sc1cc(C(C)(C)C)c(O)c(C(C)(C)C)c1)Sc1cc(C(C)(C)C)c(O)c(C(C)(C)C)c1` [Probucol, reference compound], in the data set with Normolipemic rats (0.205 mM/kg/p.o. × 8 days), the “CHOL, % different from control” value was -25.0%; the “CHOL-HDL, % different from control” value was -26%; the “Liver Weight, % different from control” value is on record as “+4.0%”; the “TG, % different from control” value is listed as -28.0%. Besides, in the data set on Normolipemic rats (0.82 mM/kg/p.o. × 4 days), the “CHOL, % different from control” value is reported as ~ 0%; the “CHOL-HDL, % different from control” value is listed as “+18.5%”; the “Liver Weight, % different from control” value is ~ 0%; the “TG, % different from control” value is reported as ~ 0%. Also, the “hypolipemic activity (in words)” value in the data set on Normolipemic rats was “moderate and is noted only after prolonged treatment (8 days)”.
With `O=C1C(CC[S+]([O-])c2ccccc2)C(=O)N(c2ccccc2)N1c1ccccc1` (stereo not drawn) [Sulfinpyrazone, reference compound], in the data set on platelet aggregation (rat, in vivo, po), the “% Inhibition, Aggregation rate” value was determined as 89.0% and the “% Inhibition, Maximum aggregation” value came to 92.5%.
Turning to `CCCCCCCCNC(C)C(O)c1ccc(SC(C)C)cc1` (stereo not drawn) [Suloctidil, reference compound], in the data set with platelet aggregation (setting [1]), the “% Inhibition, Aggregation rate” value was 57.5%. The “% Inhibition, Maximum aggregation” value with platelet aggregation (setting [1]) was 69.0%. In addition, the change in vivo at 100 mg/kg in the data set on male mice (pretreatment 45 min) amounted to 27.5%; in the data set on male mice (pretreatment 90 min) it was 11.7%.
Take `Clc1ccccc1CN1CCc2sccc2C1` [Ticlopidine, reference compound]: in the data set with platelet aggregation (setting [1]), the “% Inhibition, Aggregation rate” value was 56.0% and the “% Inhibition, Maximum aggregation” value is given as 70.0%.
